From patent US4624695A, “O-diaminophosphinyl derivatives of oximes as urease inhibitors” (Allied Corporation, priority 1983, dated 1986)

Test system: soil urease
Experiment: Efficacy test: urease inhibition in soil (urea remaining after incubation)
Type: biochemical
Settings: 800 micrograms test compound and 42.8 mg urea per 20 g air-dry soil, incubated at 25° C. for three days, run in triplicate
Protocol: Efficacy tests were conducted to evaluate the efficacy of certain representative oximated O-diaminophosphinyl compounds as urease inhibitors. The inhibition tests were run in a New York soil (Cazenovia silt loam, pH 7.2) or in Wisconsin soil (Plano silt loam, pH 5.4). Evaluations (run in triplicate) consisted of applying 800 micrograms of the test compound in 5 mL of water and 42.8 mg of urea in 1 mL of water to 20 g of air-dry soil in a glass bottle. The bottle was capped with perforated aluminum foil and incubated at 25° C. for three days prior to extraction with 100 mL of a 2M potassium chloride solution containing 0.5 mg of phenylmercuric acetate. The extracts were then analyzed for remaining urea using an autoanalyzer. Percent inhibition was calculated as [formula] where A is urea recovered from unincubated sample (urea added to soil and immediately extracted); B is urea recovered from inhibited sample; and C is urea recovered from the control (uninhibited sample).

SMILES: CC(C)=NOP(N)(N)=O [O--(Diaminophosphinyl)-2-propanone Oxime, O-(Diaminophosphinyl)-2-propanone Oxime]
- % Inhibition, Cazenovia (pH 7.2) (New York soil (Cazenovia silt loam, pH 7.2)): 84%
- % Inhibition, Wisconsin (pH 5.4) (Wisconsin soil (Plano silt loam, pH 5.4)): 53%
